In patent US8226965B2, “Methods of treating fungal, yeast and mold infections” (priority 2008, dated 2012):

Assays:
[1] = tested on: Trichophyton rubrum, Trichophyton mentagrophytes and Epidermophyton floccosum; assay: Spontaneous resistance development, overall; type: cell-based
Protocol: Phenotypically resistant isolates were tested for MICs and compared to parental MICs.

[2] = tested on: T. rubrum mycelia and microconidia; assay: Time-kill experiments; type: cell-based, Trichophyton rubrum; settings: for reduction in colony counts: 16×MIC, up to 24 hours, hyphae or microconidia in water (nongrowth)
Protocol: Time-kill experiments. […] Part of the conidial suspension was pelleted and resuspended in RPMI 1640 medium and grown for 16-18 hours overnight at room temperature to allow germination of microconidia. After germination, the hyphae were collected by centrifugation and resuspended in distilled water. […] Colony-forming units were counted after four days of incubation at 35° C.

[3] = cited from earlier work

Structure (SMILES)	stable resistance of recovered isolates [1]	reduction in colony counts [2]	activity on nongrowing mycelia and conidia ([2]; FIG. 10)	solubility in dichloromethane [3]	solubility in methanol [3]
CN(C/C=C/C#CC(C)(C)C)Cc1cccc2ccccc12 [Terbinafine]	none of the isolates were stably resistant	None of the other compounds significantly reduced colony counts	–	–	–
Cc1cc(C2CCCCC2)n(O)c(=O)c1 [Ciclopirox]	none of the isolates were stably resistant	None of the other compounds significantly reduced colony counts	no activity against the conidial form	–	–
CN(C/C=C/C#CC(C)(C)C)Cc1cccc2ccccc12.Cl [Terbinafine hydrochloride]	–	–	–	freely soluble	freely soluble
